The series in a line: In vitro drug release from drug-loaded MNs. The class given is physicochemical. The conditions noted are these: from IPN hydrogel MNs, PBS pH 7.4, 37° C., 100 rpm, first 24 hours.

Description: The drug-loaded MNs were soaked in 10 mL of PBS solution (pH 7.4) and put in a shaking incubator at 37° C. and 100 rpm to simulate the real drug release environment. About 2.5 mL of the release medium was withdrawn and replenished with an equivalent volume of PBS every half hour for the first 4 hours. Similarly, the released medium was collected at the 5th, 6th, 8th, 12th, and 24th hour followed by every 24 h for 7 days. Then, the cumulative drug released was determined by measuring the UV-Vis absorbance of DOX and LPS at 485 nm and 256 nm, respectively, and then calculated using the standard calibration curve of the free drugs, as shown in FIGS. 14A and B.
Drug release behavior of IPN hydrogel was examined. First, DOX and/or LPS were loaded into the hydrogel by simple mixing with IPN hydrogel pre-gel solution (0.5 mg DOX/MNs and 0.2 mg LPS/MNs) followed by casting MNs and sequential photo-ionic crosslinking to obtained drug loaded solid MNs arrays (DOX loaded MN, LPS loaded MN and LPS/DOX loaded MN). Then, drug loaded MNs were immersed in 10 mL PBS solution and kept in an orbital shaker incubator with a rotation of 100 rpm at 37° C.

In turn, `COc1cccc2c1C(=O)c1c(O)c3c(c(O)c1C2=O)C[C@@](O)(C(=O)CO)C[C@@H]3O[C@H]1C[C@H](N)[C@H](O)[C@H](C)O1` [DOX, doxorubicin] yielded a cumulative drug release of about 66.1±7.4%.

lipopolysaccharide [LPS] yielded a cumulative drug release of about 59.4±5.5%.

Source of the values: patent US12220550B2, “Transdermal delivery device, methods of using and making the same” (BUDDHIST TZU CHI MEDICAL FOUNDATION, priority 2021, dated 2025).
